Laboratory results published in US20140121107A1, “HERBICIDAL COMPOSITIONS FOR TOLERANT OR RESISTANT RICE CROPS” (Bayer Intellectual Property GmbH, priority 1998, published 2014).
Counter-ions that a name gives are not always drawn.

Columns and labels:
Type in all cases: in vivo
Cyperus iria = test: Herbicidal effect in rice weeds (field trial, Table 6); conditions: application in the 3-leaf stage, scoring 42 days after application
Protocol: (§1) Transgenic rice plants with a resistance to one or more herbicides (A) together with typical weed plants were grown in the open on 2×5 m plots under natural field conditions; alternatively, weed infestation occurred naturally when the rice plants were grown. Fields were set up for field rice or alternatively also for paddy rice.
(§2) 2, 4, 6 and 8 weeks after the application, the herbicidal activity of the active substances or active substance mixtures was scored visually with reference to the treated plots in comparison to untreated control plots. The damage to, and the development of, all aerial parts of the plants was recorded. Scoring was done on the basis of a percentage sale (100% action=all plants destroyed; 50% action=50% of the plants and green parts of the plants destroyed; 0% action=no recognizable effect=like control plot. The mean of the score values of in each case 4 plots was calculated.

Cyperus difformis [1] = test: Herbicidal effect in rice weeds (field trial, Table 5); conditions: application in the 3-leaf stage, scoring 36 days after application
Protocol: as §1
(§3) […] The damage to, and the development of, all aerial parts of the plants was recorded. Scoring was done on the basis of a percentage sale (100% action=all plants destroyed; 50% action=50% of the plants and green parts of the plants destroyed; 0% action=no recognizable effect=like control plot. The mean of the score values of in each case 4 plots was calculated.

Echinochloa crus galli [2] = test: Herbicidal effect in rice weeds (field trial, Table 7); conditions: application in the 3-leaf stage, scoring 42 days after application
Protocol: as §1, §2

Echinochloa crus galli [3] = test: Herbicidal effect in rice weeds (field trial, Table 4); conditions: application in the 4-leaf stage, scoring 42 days after application
Protocol: as §1, §2

Aeschynomene rudis = test: Herbicidal effect in rice weeds (field trial, Table 8); conditions: application in the 3-leaf stage, scoring 28 days after application
Protocol: as §1, §2

Echinochloa crus galli [4] = test: Herbicidal effect in rice weeds (field trial, Table 9); conditions: application in the 5-6-leaf stage, scoring 36 days after application
Protocol: as §1, §3

Echinochloa crus-galli [5] = test: Herbicidal effect in rice broad-leaved weeds (Table 2); conditions: application in the 3-4-leaf stage, scoring 2 weeks after application
Protocol: as §1, §2

Echinochloa crus-galli [6] = test: Herbicidal effect in rice weeds (field trial, Table 11); conditions: application in the 4-leaf stage, scoring 26 days after application
Protocol: as §1, §2

Ipomoea sp. = test: Herbicidal effect in rice weeds (Table 3); conditions: application in the 4-leaf stage, scoring 2 weeks after application
Protocol: as §1, §2

Cyperus difformis [7] = test: Herbicidal effect in rice weeds (field trial, Table 10); conditions: 15 g A.S./ha; application in the 7-leaf stage; scoring 36 days after application
Protocol: as §1
The damage to, and the development of, all aerial parts of the plants was recorded.

SMILES: CC(C)Oc1cc(-n2nc(C(C)(C)C)oc2=O)c(Cl)cc1Cl [(B1.21)]
- Herbicidal action (%) against Cyperus iria (Cyperus iria; 250 g A.S./ha): 37%

SMILES: COc1cc(OC)nc(NC(=O)NS(=O)(=O)c2c(C(=O)O)cnn2C)n1 [(B2.8), 5-(4,6-dimethoxypyrimidin-2-ylcarbamoylsulfamoyl)-1-methylpyrazole-4-carboxylic acid]
- Herbicidal action (%) against Cyperus difformis (Cyperus difformis [1]; 15 g A.S./ha): 65%

SMILES: O=C(O)c1c(Cl)ccc2cc(Cl)cnc12 [(B1.3), 3,7-dichloroquinoline-8-carboxylic acid]
- Herbicidal action (%) against Echinochloa crus galli (Echinochloa crus galli [2]; 560 g A.S./ha): 25%

SMILES: CC1(C)CON(Cc2ccccc2Cl)C1=O [(B1.12), 2-(2-chlorobenzyl)-4,4-dimethyl-1,2-oxazolidin-3-one]
- Herbicidal action (%) against Echinochloa crus galli (Echinochloa crus galli [3]; 400 g A.S./ha): 7%

SMILES: COc1nc(C)nc(NC(=O)NS(=O)(=O)c2ccccc2C(=O)O)n1 [(B2.5), 2-[[[[(4-methoxy-6-methyl-1,3,5-triazin-2-yl)amino]carbonyl]amino]sulfonyl]benzoic acid]
- Herbicidal action (%) against Cyperus iria (Cyperus iria; 1 g A.S./ha): 35%

SMILES: CCN(CC)C(=O)SCc1ccc(Cl)cc1 [(B1.2), S-4-chlorobenzyl diethylthiocarbamate]
- Herbicidal action (%) against Cyperus iria (Cyperus iria; 1500 g A.S./ha): 57%

SMILES: CP(=O)(O)CCC(N)C(=O)O (centres unmarked) [(A1.2), glufosinate-monoammonium salt]
- Herbicidal action (%) against Echinochloa crus galli (Echinochloa crus galli [3]; 250 g A.S./ha): 63%
- Herbicidal action (%) against Echinochloa crus galli (Echinochloa crus galli [3]; 500 g A.S./ha): 87%
- Herbicidal action (%) against Aeschynomene rudis (Aeschynomene rudis; 250 g A.S./ha): 65%
- Herbicidal action (%) against Aeschynomene rudis (Aeschynomene rudis; 500 g A.S./ha): 83%
- Herbicidal action (%) against Cyperus iria (Cyperus iria; 400 g A.S./ha): 35%
- Herbicidal action (%) against Echinochloa crus galli (Echinochloa crus galli [4]; 500 g A.S./ha): 18%
- Herbicidal action (%) against Echinochloa crus-galli (Echinochloa crus-galli [5]; 400 g A.S./ha): 93%
- Herbicidal action (%) against Echinochloa crus-galli (Echinochloa crus-galli [6]; 250 g A.S./ha): 35%
- Herbicidal action (%) against Echinochloa crus-galli (Echinochloa crus-galli [6]; 500 g A.S./ha): 75%
- Herbicidal action (%) against Cyperus difformis (Cyperus difformis [1]; 400 g A.S./ha): 18%
- Herbicidal action (%) against Cyperus difformis (Cyperus difformis [1]; 500 g A.S./ha): 40%
- Herbicidal action (%) against Ipomoea sp. (Ipomoea sp.; 400 g A.S./ha): 93%
- Herbicidal action (%) against Echinochloa crus galli (Echinochloa crus galli [2]; 400 g A.S./ha): 65%

SMILES: CCSC(=O)N1CCCCCC1 [(B1.1), S-ethyl azepane-1-thiocarboxylate]
- Herbicidal action (%) against Echinochloa crus galli (Echinochloa crus galli [4]; 4480 g A.S./ha): 0%

SMILES: CCC(=O)Nc1ccc(Cl)c(Cl)c1 [(B1.4), N-(3,4-dichlorophenyl)-propanamide]
- Herbicidal action (%) against Ipomoea sp. (Ipomoea sp.; 3360 g A.S./ha): 90%

SMILES: Cc1nn(-c2cc(CC(Cl)C(=O)O)c(Cl)cc2F)c(=O)n1C(F)F (racemic) [(B2.13), (RS)-2-chloro-3-[2-chloro-5-(4-difluoromethyl-4,5-dihydro-3-methyl-5-oxo-1H-1,2,4-triazol-1-yl)-4-fluorophenyl]propionic acid]
- Herbicidal action (%) against Cyperus difformis (Cyperus difformis [1]; 50 g A.S./ha): 28%

SMILES: COC(=O)c1ccccc1CS(=O)(=O)NC(=O)Nc1nc(OC)cc(OC)n1 [(B2.3), methyl 2-[[[[[(4,6-dimethoxy-2-pyrimidinyl)amino]carbonyl]-amino]sulfonyl]methyl]benzoate]
- Herbicidal action (%) against Echinochloa crus-galli (Echinochloa crus-galli [5]; 45 g A.S./ha): 0%
- Herbicidal action (%) against Cyperus difformis (Cyperus difformis [1]; 35 g A.S./ha): 55%
- Herbicidal action (%) against Cyperus difformis (Cyperus difformis [1]; 70 g A.S./ha): 87%

SMILES: CCC(CC)Nc1c([N+](=O)[O-])cc(C)c(C)c1[N+](=O)[O-] [(B1.5), N-(1-ethylpropyl)-2,6-dinitro-3,4-xylidine]
- Herbicidal action (%) against Cyperus iria (Cyperus iria; 1000 g A.S./ha): 33%

SMILES: CCOc1ccccc1OS(=O)(=O)NC(=O)Nc1nc(OC)cc(OC)n1 [(B2.4), 1-(4,6-dimethoxypyrimidin-2-yl)-3-(2-ethoxyphenoxysutfonyl)urea]
- Herbicidal action (%) against Cyperus difformis (Cyperus difformis [7]): 40%

SMILES: CCCC(=NOCC(C)Oc1ccc(Cl)cc1)C1=C(O)CC(C2CCCSC2)CC1=O (centres unmarked) [(B4.4)]
- Herbicidal action (%) against Echinochloa crus-galli (Echinochloa crus-galli [6]; 37.5 g A.S./ha): 50%
- Herbicidal action (%) against Echinochloa crus-galli (Echinochloa crus-galli [6]; 75 g A.S./ha): 83%

SMILES: CCc1cnc(C2=NC(C)(C(C)C)C(=O)N2)c(C(=O)O)c1 (centres unmarked) [(A3.2), imazethapyr]
- Herbicidal action (%) against Echinochloa crus galli (Echinochloa crus galli [4]; 75 g A.S./ha): 67%

SMILES: CCS(=O)(=O)Oc1ccc2c(c1)C(C)(C)CO2 [(B2.15), 2,3-dihydro-3,3-dimethylbenzofuran-5-yl ethanesulfonate]
- Herbicidal action (%) against Cyperus difformis (Cyperus difformis [1]; 200 g A.S./ha): 35%

SMILES: O=C(O)COc1ccc(Cl)cc1Cl [(B2.1), (2,4-dichlorophenoxy)acetic acid]
- Herbicidal action (%) against Cyperus iria (Cyperus iria; 500 g A.S./ha): 62%
